Measured values reported in patent publication US9907791B2, “Ron inhibitors for use in preventing and treating bone loss” (UNIVERSITY OF UTAH RESEARCH FOUNDATION, priority 2014, dated 2018).

What was measured:
bone marrow osteoclasts = assay: Osteoclast resorption assay; assay type: cell-based, mice; settings: WT osteoclasts, inhibitors 10 μM or muRANK-Fc 10 μg/mL daily day 9 to 12
Description: Bone marrow osteoclasts were generated from 6 to 8 week old WT and RonTK−/− mice. Briefly, bone marrow was isolated from hindlimb bones and plated in α-MEM media containing 10% heat-inactivated fetal bovine serum (FBS, Sigma, St. Louis, Mo.), 100 units/mL penicillin-streptomycin (Hyclone), and 33 ng/mL human macrophage colony-stimulating factor (hM-CSF) (PeproTech, Rocky Hill, N.J.) for 24 hours. Non-adherent cells were collected and frozen for later use. To assess resorption activity, bone marrow precursor cells were thawed and seeded at a density of 1×10^5 cells per well in BioCoat Osteologic slides (BD Biosciences, San Jose, Calif.) in α-MEM media containing 10% FBS and antibiotics. After adhering overnight, media was removed and media containing 33 ng/mL hM-CSF and 9 ng/mL muRANKL (R & D systems, Minneapolis, Minn.) was added. The medium was changed every 3 days depending on acidification, and the assay was terminated as indicated. Recombinant human MSP was prepared and added daily as indicated. Cells were removed with 6% bleach and slides were viewed microscopically using phase-contrast with 20× magnification. Osteolytic resorption area within 5 representative fields was determined using Image J software, experiments were performed in triplicate. […]

PyMT-MSP tumor cells = assay: Intratibial PyMT-MSP tumor-induced osteolysis; assay type: in vivo, mice
Source text: (§1) All procedures involving mice and experimental protocols were approved by the Institutional Animal Care and Use Committee (IACUC) of the University of Utah. The RonTK−/− mice which reside on the FVB background, were crossed with NOD.SCID mice for an immune-compromised mouse model. As a control, wild-type FVB mice were also crossed with NOD.SCID mice. The STK−/− mice, which are on a C57BL/6 background, were compared to wild-type C57BL/6 mice as controls. Mice for all experiments were 6 to 8 weeks of age. For intratibial injections, 1×10^5 (PyMTor DU4475) or 3×10^5 (MDA-MB-231) tumor cells were resuspended in 10 μL matrigel and injected into the right tibia of anesthetized female FVB (PyMT) or NOD.SCID mice carrying various alleles of RON. Osteolysis was assessed by X-ray radiography. Dissected hindlimbs from mice sacrificed at the final time point in each experiment were placed in the Kodak In-vivo Multispectral Imaging System FX and exposed to X-ray radiography at 35 kV for 100 sec. Excess tumor tissue was removed from the bones prior to X-ray. Osteolytic lesions were quantified using Image J software (NCBI). All images were compared to the contralateral leg as an internal control.
Hindlimb bones were excised from mice at the time of sacrifice and bones were fixed in 10% neutral-buffered formalin, decalcified in Formical-2000 (Decal Corporation, Tallman, N.Y.) for 8 days and embedded in paraffin for hematoxylin and eosin (H & E) or immunohistochemical staining. Osteoclast number was assessed as TRAP^+ multinucleated cells containing 4 or more nuclei and reported as TRAP^+ cells per field. Three sections per mouse and 5 fields per section were used for quantification with fields representing the entire length of the tibia. Tumor proliferation rate was reported as the number of cells which were positive for phospho-H3 staining compared to the number of unstained cells per field expressed as a percent. Three sections per mouse and 5 fields per section were used for quantification with analysis being restricted to within the bone marrow cavity. Immunohistochemical analysis was performed with heat-induced antigen retrieval in sodium-citrate buffer (Dako, Denmark). Primary antibodies used were anti-TRAP at 1:50 (Santa Cruz, sc-30833, Dallas, Tex.), anti-Ki67 at 1:100 (Santa Cruz, sc-12202S, Dallas, Tex.), anti-phosphoH3 at 1:100 (Cell Signaling, #9701, Beverly, Mass.), anti-NFATc1 at 1:50 (Santa Cruz, sc-13033, Dallas, Tex.), and anti-RON at 1:250 (Santa Cruz, sc-322, Dallas, Tex.). Bones from mice lacking RON were used as a negative control. Biotinylated secondary antibody was used with the EnVision^+ system HRP kit (Dako, Denmark) and nuclei counterstained with hematoxylin.
For in vivo experiments, the OSI-296 inhibitor was dissolved in 40% Trappsol with 0.01 M HCl, and mice were treated at a concentration of 200 mg/kg daily by oral gavage. Treatment began either 3 days after tumor cell injection for prophylactic experiments, or 3 weeks after tumor cell injection for therapeutic experiments. ASLAN002 was dissolved in 70% PEG400 with 1×PBS and mice were treated at a concentration of 50 mg/kg daily by oral gavage. muRANK-Fc was given at a concentration of 10 mg/kg every three days by intra-peritoneal injection. For the osteoporosis study, mice were treated beginning on the day after ovary removal. The treatment regimen for OSI-296 was 200 mg/kg every other day by oral gavage. ASLAN002 was administered at 50 mg/kg every other day by oral gavage. Treatment continued until the time of sacrifice at 28 days.

[1] = tested on: DU4475 breast cancer cells; assay: Intratibial DU4475 tumor-induced osteolysis; assay type: in vivo, mice; settings: treatment began 3 days post tumor cell injection
Source text: as §1
For in vivo experiments, the OSI-296 inhibitor was dissolved in 40% Trappsol with 0.01 M HCl, and mice were treated at a concentration of 200 mg/kg daily by oral gavage. […]

Compound: CCOc1ccn(-c2ccc(F)cc2)c(=O)c1C(=O)Nc1ccc(Oc2ccnc(N)c2Cl)c(F)c1 [ASLAN002]
- MSP-induced increase in osteoclast resorption (resorption area) (bone marrow osteoclasts): dramatically reduced
- inhibition of osteolysis (PyMT-MSP tumor cells; PyMT-MSP tumors, treatment beginning three days after tumor injection, average): 6-10 fold
- PyMT-MSP tumor growth in the bone (PyMT-MSP tumor cells; caliper measurements): trend in decreased growth, but did not reach statistical significance
- osteolysis from DU4475 cells [1]: prevented osteolysis
